Tested on: human maximum recommended daily dose, FDA database
Test: DSSTox (FDAMDD) FDA Maximum (Recommended) Daily Dose Database
Conditions: stronger effect = lower value
From the text: The Food and Drug Administration (FDA) Center for Drug Evaluation and Research, Office of Pharmaceutical Science, Informatics and Computational Safety Analysis Staff's Maximum Recommended Daily Dose (FDAMDD) database contains values for over 1200 pharmaceuticals listed in Martindale: The Extra Pharmacopoeia (1973, 1983, and 1993) and The Physicians' Desk Reference (1995 and 1999). Some classes of chemicals were excluded from the FDAMDD database due to their unsuitability for most QSAR modeling programs. These were inorganic chemicals, high molecular weight polymers (>5000 Daltons), fibers, salts, mixtures of organic chemicals, and small molecules (<100 Daltons). FDAMDD is the non-proprietary portion of the database that was used in the QSAR analysis reported in the Main Citation. DSSTox FDAMDD has fewer substance records than the original MRDD Source database due to consolidation of partial structures (i.e., complexed entities) into a single record and elimination of duplicate entries. DSSTox FDAMDD also differs from the MRDD Source database in presenting complete structural information pertaining to the actual salt or complexed form corresponding to the listed ChemicalName and CASRN. According to the Source authors, there are a number of cases where multiple related forms or derivatives of a drug were listed as separate records but were assumed to fall under the same clinical toxicity assessment and, therefore, assigned the same Dose_MRDD_mg activity value. For the DSSTox FDAMDD, we have labeled these derivatives in the ChemClass_MRDD_grouping field and provide their counts in the ChemicalReplicateCount field to highlight their special nature.
Maximum recommended daily dose (or maximum recommended therapeutic dose) values were determined from pharmaceutical clinical trials that employed an oral route of exposure and daily treatments, usually for 3-12 months. Drugs were given as single or divided dose treatment regimens to achieve desired pharmacological effects. Roughly 5% of the pharmaceuticals in the FDAMDD data file were antineoplastics and anesthetics and were administered intravenously and/or intramuscularly. When separate MRDDs were reported for different routes of exposure, only the oral MRDD was included in the data file and only MRDD values reported for the average adult patient were used. Pharmaceuticals that are administered orally are usually tested over a limited range of doses and have MRDDs reported as mg/day. The mg/day unit was converted to mg/kg-body weight (bw)/day based upon an average adult weighing 60 kg. In contrast, the dose unit for most antineoplastic drug MRDDs is reported as mg/m2 which was converted to mg/kg-bw/day using the formula mg/kg-bw/day = mg/m2/37 for an average adult. Additionally, a few drugs had MRDDs reported in parts per million (ppm) which were converted to mg/kg-bw/day on the basis that 1000 ppm equals 25 mg/kg-bw/day for an average 60 kg adult. Activity Score is mapping of LOG10(1/Dose_MRDD_mmol) spanning activity range [MIN, MAX] onto Integer 1-100 Activity range, where 100 is highest potency and 1 is lowest potency: ActivityScore = 100 * INTEGER[(LOGINV_MRDD_mmol - MIN)/(MAX […] MIN)]. Activity Outcome is "active" for all substances, since Dose_MRDD_mmol is reported for all substances.

[1] = TherapeuticCategory: antibacterial
[2] = TherapeuticCategory: cardiotonic
[3] = TherapeuticCategory: glucocorticoid
[4] = TherapeuticCategory: sedative, hypnotic
[5] = TherapeuticCategory: diagnostic aid
[6] = TherapeuticCategory: narcotic analgesic
[7] = TherapeuticCategory: anticonvulsant
[8] = TherapeuticCategory: antianginal

COCC1=C(C(=O)OC(C)OC(=O)OC(C)C)N2C(=O)[C@@H](NC(=O)/C(=N\OC)c3csc(N)n3)[C@H]2SC1 (some centres not stated)
maximum recommended daily dose (mmol/kg-bw/day) [1]: 0.0179

C[C@H]1O[C@@H](O[C@H]2[C@@H](O)C[C@H](O[C@H]3[C@@H](O)C[C@H](O[C@H]4CC[C@@]5(C)[C@H](CC[C@@H]6[C@@H]5C[C@@H](O)[C@]5(C)[C@@H](C7=CC(=O)OC7)CC[C@]65O)C4)O[C@@H]3C)O[C@@H]2C)C[C@H](O)[C@@H]1O
maximum recommended daily dose (mmol/kg-bw/day) [2]: 1.28e-08

COc1ccccc1OCC(O)CO (configuration not stated)
maximum recommended daily dose (mmol/kg-bw/day) (TherapeuticCategory: expectorant): 0.101

CC(=O)O[C@]1(C(C)=O)CC[C@H]2[C@@H]3C=C(Cl)C4=CC(=O)CC[C@]4(C)[C@H]3CC[C@@]21C
maximum recommended daily dose (mmol/kg-bw/day) (TherapeuticCategory: progestogen, antineoplastic): 8.22e-05

C[C@]12C=CC(=O)C=C1C(Cl)=C[C@@H]1[C@@H]2[C@@H](O)C[C@@]2(C)[C@H]1CC[C@]2(O)C(=O)CO
maximum recommended daily dose (mmol/kg-bw/day) [3]: 0.000529

CCC(c1ccccc1)c1c(O)c2ccccc2oc1=O (configuration not stated)
maximum recommended daily dose (mmol/kg-bw/day) (TherapeuticCategory: anticoagulant): 0.00143

NC(=O)[C@@H]1CCCN1C(=O)[C@H](Cc1cnc[nH]1)NC(=O)[C@@H]1CCC(=O)N1
maximum recommended daily dose (mmol/kg-bw/day) (TherapeuticCategory: prohormone): 2.3e-05

C[C@@H]1O[C@@H](O[C@@H]2C=C3CC[C@@H]4[C@H](CC[C@]5(C)[C@@H](c6ccc(=O)oc6)CC[C@]45O)[C@@]3(C)CC2)[C@H](O)[C@H](O)[C@H]1O
maximum recommended daily dose (mmol/kg-bw/day) [2]: 7.86e-05

CCCN(CCC)S(=O)(=O)c1ccc(C(=O)O)cc1
maximum recommended daily dose (mmol/kg-bw/day) (TherapeuticCategory: uricosuric): 0.0585

CCC(Br)(CC)C(=O)NC(N)=O
maximum recommended daily dose (mmol/kg-bw/day) [4]: 0.0704

CCC(=O)OC(OP(=O)(CCCCc1ccccc1)CC(=O)N1C[C@H](C2CCCCC2)C[C@H]1C(=O)O)C(C)C (some centres not stated)
maximum recommended daily dose (mmol/kg-bw/day) (TherapeuticCategory: antihypertensive): 0.00236

CC(=O)N(CC(C)C(=O)O)c1c(I)cc(I)c(N)c1I (configuration not stated)
maximum recommended daily dose (mmol/kg-bw/day) [5]: 0.122

CC(=O)[C@@]12O[C@](C)(c3ccccc3)O[C@@H]1C[C@H]1[C@@H]3CCC4=CC(=O)CC[C@]4(C)[C@H]3CC[C@@]12C
maximum recommended daily dose (mmol/kg-bw/day) (TherapeuticCategory: acne treatment): 0.00557

CCN1CCN(C(=O)N[C@@H](C(=O)N[C@@H]2C(=O)N3[C@@H]2SC(C)(C)[C@@H]3C(=O)O)c2ccccc2)C(=O)C1=O
maximum recommended daily dose (mmol/kg-bw/day) [1]: 0.773

CN(C)CCC(c1ccc(Br)cc1)c1ccccn1 (configuration not stated)
maximum recommended daily dose (mmol/kg-bw/day) (TherapeuticCategory: antihistaminic): 0.00125

CC(C)Cc1ccc(C(C)C(=O)OCc2ccccn2)cc1 (configuration not stated)
maximum recommended daily dose (mmol/kg-bw/day) (TherapeuticCategory: anti inflammatory): 0.135

CCN(CCO)CCn1c(Cc2ccccc2)nc2c1c(=O)n(C)c(=O)n2C
maximum recommended daily dose (mmol/kg-bw/day) (TherapeuticCategory: bronchodilator): 0.0778

COc1cc(C(=O)N2CCOCC2)cc(OC)c1OC
maximum recommended daily dose (mmol/kg-bw/day) (TherapeuticCategory: sedative): 0.178

CO[C@@]1(NC(=O)CSCC#N)C(=O)N2C(C(=O)O)=C(CSc3nnnn3C)CS[C@@H]21
maximum recommended daily dose (mmol/kg-bw/day) [1]: 0.212

O=c1c(CO)c/c(=N/Nc2ccc(S(=O)(=O)O)c3ccccc23)c(=O)/c1=N/Nc1ccc(S(=O)(=O)O)c2ccccc12
maximum recommended daily dose (mmol/kg-bw/day) (TherapeuticCategory: food additive): 0.0023

CCN(CC)CCNc1ccc(C)c2sc3ccccc3c(=O)c12
maximum recommended daily dose (mmol/kg-bw/day) (TherapeuticCategory: antihelmintic): 0.0978

CO/N=C(/C(=O)N[C@@H]1C(=O)N2C(C(=O)O)=C(COC(N)=O)CS[C@H]12)c1ccco1
maximum recommended daily dose (mmol/kg-bw/day) [1]: 0.0394

CCC(=O)C(CC(C)N(C)C)(c1ccccc1)c1ccccc1 (configuration not stated)
maximum recommended daily dose (mmol/kg-bw/day) [6]: 0.00162

O=C1OC(c2ccc(O)c(S(=O)(=O)O)c2)(c2ccc(O)c(S(=O)(=O)O)c2)c2c(Br)c(Br)c(Br)c(Br)c21
maximum recommended daily dose (mmol/kg-bw/day) [5]: 0.00597

CCCCN(CCCC)CCC(O)c1cc2c(Cl)cc(Cl)cc2c2cc(C(F)(F)F)ccc12 (configuration not stated)
maximum recommended daily dose (mmol/kg-bw/day) (TherapeuticCategory: antimalarial): 0.05

CCC1(C)CC(=O)NC1=O (configuration not stated)
maximum recommended daily dose (mmol/kg-bw/day) [7]: 0.118

COc1ccc([C@@H]2Sc3ccccc3N(CCN(C)C)C(=O)[C@@H]2OC(C)=O)cc1
maximum recommended daily dose (mmol/kg-bw/day) [8]: 0.0193

Cn1nnnc1SCC1=C(C(=O)O)N2C(=O)[C@@H](NC(=O)[C@H](OC=O)c3ccccc3)[C@H]2SC1
maximum recommended daily dose (mmol/kg-bw/day) [1]: 0.195

CCC[N+]12[C@@H]3C[C@]45c6ccccc6N(C)[C@H]4[C@H]1C[C@H](C3[C@@H]5O)[C@H](CC)[C@H]2O (some centres not stated)
maximum recommended daily dose (mmol/kg-bw/day) (TherapeuticCategory: antiarryhthmic): 0.0036

CC[C@H](C)C(=O)O[C@H]1C[C@@H](C)C=C2C=C[C@H](C)[C@H](CC[C@@H]3C[C@@H](O)CC(=O)O3)[C@H]21
maximum recommended daily dose (mmol/kg-bw/day) (TherapeuticCategory: antihypercholesterolemic): 0.00329

COc1ccccc1OCC(O)COC(N)=O (configuration not stated)
maximum recommended daily dose (mmol/kg-bw/day) (TherapeuticCategory: skeletal muscle relaxant): 0.415

CCCCC[C@H](O)/C=C/[C@@H]1[C@H]2C/C(=C/CCCC(=O)O)O[C@H]2C[C@H]1O
maximum recommended daily dose (mmol/kg-bw/day) (TherapeuticCategory: platelet aggregation inhibitor): 2.84e-08

O=C(Cn1cnnn1)N[C@@H]1C(=O)N2C(C(=O)O)=C(CSc3nncs3)CS[C@H]12
maximum recommended daily dose (mmol/kg-bw/day) [1]: 0.151

CCn1nc(C(=O)O)c(=O)c2cc3c(cc21)OCO3
maximum recommended daily dose (mmol/kg-bw/day) [1]: 0.0637

CC(CCc1ccccc1)NC(C)C(O)c1ccc(O)cc1 (configuration not stated)
maximum recommended daily dose (mmol/kg-bw/day) (TherapeuticCategory: vasodilator): 0.00267

CC1=C(/C=C/C(C)=C/C=C/C(C)=C/CO)C(C)(C)CCC1
maximum recommended daily dose (mmol/kg-bw/day) (TherapeuticCategory: antixerophthalmic vitamin): 0.0032

C[N+](C)(C)C[C@H](O)CC(=O)[O-]
maximum recommended daily dose (mmol/kg-bw/day) (TherapeuticCategory: antihyperlipoproteinemic): 0.307

C[C@@H]1C[C@H]2[C@@H]3C[C@H](F)C4=CC(=O)C=C[C@]4(C)[C@H]3[C@@H](O)C[C@]2(C)[C@@]1(O)C(=O)CO
maximum recommended daily dose (mmol/kg-bw/day) [3]: 0.00102

CN1CC[C@]23CCCC[C@H]2[C@H]1Cc1ccc(O)cc13
maximum recommended daily dose (mmol/kg-bw/day) [6]: 0.000583

CCC1(c2ccccc2)CCC(=O)NC1=O (configuration not stated)
maximum recommended daily dose (mmol/kg-bw/day) [4]: 0.0383

CCN1CC(CCN2CCOCC2)C(c2ccccc2)(c2ccccc2)C1=O (configuration not stated)
maximum recommended daily dose (mmol/kg-bw/day) (TherapeuticCategory: respiratory stimulant): 0.0106

CCOC(=O)C1=C(COCCN)NC(C)=C(C(=O)OC)C1c1ccccc1Cl (configuration not stated)
maximum recommended daily dose (mmol/kg-bw/day) (TherapeuticCategory: antianginal, antihypertensive): 0.000408

C1CNCCN1
maximum recommended daily dose (mmol/kg-bw/day) (TherapeuticCategory: anthelmintic): 0.774

CC(=O)OCC1=C(C(=O)O)N2C(=O)[C@@H](NC(=O)CC#N)[C@H]2SC1
maximum recommended daily dose (mmol/kg-bw/day) [1]: 0.295

CC[N+](CC)(CCNC(=O)C(=O)NCC[N+](CC)(CC)Cc1ccccc1Cl)Cc1ccccc1Cl
maximum recommended daily dose (mmol/kg-bw/day) (TherapeuticCategory: cholinesterase inhibitor): 0.00274

CNC[C@H](O)c1cccc(O)c1
maximum recommended daily dose (mmol/kg-bw/day) (TherapeuticCategory: mydriatic, decongestant): 0.00498

CC1CCCC(C)N1NC(=O)c1ccc(Cl)c(S(N)(=O)=O)c1 (configuration not stated)
maximum recommended daily dose (mmol/kg-bw/day) (TherapeuticCategory: antihypertensive, diuretic): 0.00289

CO[C@@H]1[C@@H](OC(N)=O)[C@@H](O)[C@H](Oc2ccc3c(O)c(NC(=O)c4ccc(O)c(CC=C(C)C)c4)c(=O)oc3c2C)OC1(C)C
maximum recommended daily dose (mmol/kg-bw/day) [1]: 0.0394

O=C(O)Cn1cc(I)c(=O)c(I)c1
maximum recommended daily dose (mmol/kg-bw/day) [5]: 0.196

O=C(c1ccccc1)c1ccc2n1CCC2C(=O)O (configuration not stated)
maximum recommended daily dose (mmol/kg-bw/day) (TherapeuticCategory: analgesic, anti inflammatory): 0.00979

CC(=O)c1ccc2c(c1)N(CCCN1CCC(CCO)CC1)c1ccccc1S2
maximum recommended daily dose (mmol/kg-bw/day) (TherapeuticCategory: antipsychotic): 0.0065

O=[N+]([O-])O[C@@H]1CO[C@H]2[C@@H]1OC[C@@H]2O
maximum recommended daily dose (mmol/kg-bw/day) [8]: 0.0105

COC1=CC(=O)C[C@@H](C)[C@]12Oc1c(Cl)c(OC)cc(OC)c1C2=O
maximum recommended daily dose (mmol/kg-bw/day) (TherapeuticCategory: antifungal): 0.0354

CCN(CC)CC#CCOC(=O)C(O)(c1ccccc1)C1CCCCC1 (configuration not stated)
maximum recommended daily dose (mmol/kg-bw/day) (TherapeuticCategory: anticholinergic): 0.000932

CCC1(CC)C(=O)NC(=O)NC1=O
maximum recommended daily dose (mmol/kg-bw/day) [4]: 0.0543

CCC1NC(=O)c2cc(S(N)(=O)=O)c(Cl)cc2N1 (configuration not stated)
maximum recommended daily dose (mmol/kg-bw/day) (TherapeuticCategory: diuretic): 0.0115

CCC1(CC)C(=O)NC(=O)N(C)C1=O
maximum recommended daily dose (mmol/kg-bw/day) [7]: 0.0252
